Tests used:
[1] = Flow rheometry test of PCL-PVAc-PEG/Vitamin E composites; assay type: physicochemical; details: flow mode, 20±1° C., shear stress 0.60 to 59.68 Pa
Procedure: Rheological Characterization. […] The viscoelastic properties of the composites were evaluated by measuring their shear rate under an applied shear stress. The viscous response, or the loss modulus, is the loss of the rigid structure of the system as a result of the applied stress over strain (G″). The recovery of the polymeric dispersions when lifting the applied stress is known as the elastic (G′) or storage modulus. Tangent of the phase angle (tan δ) is the ratio of the viscous property of the dispersion (G″) to its elastic property (G′). Tan δ is a measure of the relative contribution of the viscous component to the solid characteristics of the material. Materials behave increasingly like a liquid as the tan δ value increases above 1, whereas they behave increasingly like a gel as the tan δ value decreases below 1 [13].
The characterization of the rheological properties of vitamin E and PCL-PVAc-PEG/Vitamin E composites was carried out with an Advanced AR 2000 controlled stress/controlled rate rheometer (TA Instruments, New Castle, Del., USA) with a 2o, 40 mm cone-plate geometry and a 61 μm gap between the plates. Approximately 0.6 mL of each sample was carefully placed on the lower plate. […]
Flow Rheometry Test. The flow behavior and complex viscosity (η) of the PCL-PVAc-PEG/Vitamin E composites were measured in flow mode at 20±1° C. under an applied shear stress from 0.60 to 59.68 Pa. […]

[2] = Texture analysis of PCL-PVAc-PEG/Vitamin E composites (hardness, adhesiveness, cohesiveness); assay type: physicochemical; details: probe compression 2 mm/s to 4 mm depth, 20±1° C.
Procedure: Texture Analysis. Texture analysis is a technique that has been widely utilized for the mechanical characterization of food and pharmaceutical products. The mechanical characteristics of the PCL-PVAc-PEG/Vitamin E composites were determined by using a TA-XT plus texture analyzer (Texture Technologies Corp and Stable Micro Systems, Ltd, Scarsdale, N.Y., USA) equipped with a 50 kg load cell and fitted with a 35 mm flat-faced stainless-steel cylindrical probe. Briefly, 10 g sample of each composite was placed in a 25 mL jacketed reaction beaker. Before analysis, air bubbles were removed from the samples by maintaining the reaction beaker at 80° C. for approximately 30 minutes. Samples were then allowed to equilibrate to room temperature for 24 h. After equilibration, samples were tested for their texture properties by compressing the probe into the surface of each sample at a rate of 2 mm/s to a depth of 4 mm, after which the probe was retracted at a rate of 2 mm/s. Composite Hardness, adhesiveness, and cohesiveness were then estimated from the generated force-time plots. At least three replicate analyses were carried out for each composite using a freshly prepared sample. Data collection and calculation were determined by the Texture Exponent 6.1.7.0 software package.
Texture Analysis. Texture profile analysis (TPA) of the PCL-PVAc-PEG/Vitamin E composites was carried out to study their compressional flow properties. It provided valuable information about the impact of PCL-PVAc-PEG load on the hardness, adhesiveness, and cohesiveness of the composites (FIG. 9). These characteristics quantify sample deformation under compression. Hardness describes the stress/work required to remove the sample from the container and to subsequently apply it to the site of application. It is defined as the force required to acquire a given deformation which is the same as the maximum peak force during compression. Hardness should be low in order to allow the material to be easily removed from the container. […]

[3] = 24° C.; cited from earlier work

Viscosity [1]: 5.9 Pa·s | Adhesiveness [2]: 0.01 kg·s | Cohesiveness [2]: 0.02 kg·s | Hardness [2]: 0.021 kg
Compound: Cc1c(C)c2c(c(C)c1O)CCC(C)(CCCC(C)CCCC(C)CCCC(C)C)O2 (racemic) [pure vitamin E, DL-α-Tocopherol]
reported viscosity [3]: 2480 centipoise

Reference: patent US20200354562A1, “FILMS AND COMPOSITES AND METHODS OF PRODUCTION AND USE” (Texas Tech University System, priority 2018, published 2020)
